# According to article PMC4729491, “The Cellular Thioredoxin-1/Thioredoxin Reductase-1 Driven Oxidoreduction Represents a Chemotherapeutic Target for HIV-1 Entry Inhibition” (PLoS ONE, 2016):
# Structures can show the parent of a compound that is named as a salt. Square brackets hold non-standard residues; d marks the D form. Peptide text beside a SMILES is read from it. * marks the point of attachment. Sta = CC(C)C[C@H](N)[C@@H](O)CC(=O)O; Isovaleryl = CC(C)CC(=O)*
# Key:
# [1] = molecular target: T1, HIV-1 protease (Human immunodeficiency virus type 1 group M subtype B, UniProt P04585); assay: HIV-1 protease inhibition (SensoLyte 520 kit); type: biochemical; settings: 25 μM
# T1 construct: the virus-encoded protease; endogenous in cells; host or cells: persistently infected HuT-78/HIV-1(IIIB) cells and released virus particles
# Protocol: The ability of the compounds to inhibit the activity of recombinant HIV-1 protease was determined by a SensoLyte 520 HIV-1 protease assay kit (AnaSpec Inc., Fremont, CA) according to the manufacturer’s instructions. Compounds (10 μl of a 250 μM, solution, giving a final concentration of 25 μM in the reaction mixture) and 40 μl HIV-1 protease (100 ng/well; AnaSpec Inc.) were added to a dark-bottom 96-well plate. Pepstatin A was included as an inhibitor control. The plate as well as the HIV-1 protease substrate solution (provided) were incubated for 15 minutes at 37°C and 50 μl protease substrate was added to all wells. The fluorescence was measured at Ex/Em = 490 nm/520 nm with a Varioskan Flash (Thermo Electron Corporation, Schwerte, Germany).
# [2] = system: HIV-1(IIIB); type: cell-based; settings: MT-4 cells, p24 ELISA at 31 h; AZT 1.9 μM, ritonavir 277 nM
# Protocol: Two time-of-drug-addition (TOA) experiments were performed and adopted from previously reported methods. Briefly, MT-4 cells were infected with HIV-1(IIIB) at a multiplicity of infection of 0.5. Following a 1 hour adsorption period, cells were washed, distributed in a 96-well tray at 100,000 cells per 200 μl per well and incubated at 37°C.
# For the first experiment, test compounds were added to the infected cell cultures at different time points (i.e. 0, 1, 2, 3, 4, 5, 6, 7, 8, 9, 24, and 25 h) after the start of infection.
# In a second experiment, the resolution of the assay was increased by evaluating early time points in more detail. Therefore, the test compounds were added to the infected cell cultures at the following time points after the start of infection: 0, 15, 30, 45, 100 and 180 min; and 24 as well as 25 h.
# Product added at time points 0, 15, 30 and 45 min was present at the start of the viral infection and washed away after 1 hour. After washing, fresh product was added to maintain viral suppression throughout the remaining of the experiment.
# HIV-1 production was determined at 31 h post infection via a p24 ELISA (Perkin Elmer, Brussels, Belgium).
# [3] = molecular target: T1, HIV-1 protease; assay: p55 cleavage in virus particles from HuT-78/HIV-1 cells (Western blot); type: cell-based; settings: 43 h, AZT 3.7 μM, ritonavir 2.8 μM, TE-10 1 and 20 μM
# Protocol: In order to confirm the inhibitory effect of TE-10, an additional assay was performed to study the inhibition of the HIV-1 protease by TE-10. Therefore, 2 x 10^5 persistently infected HuT-78/HIV-1 cells were washed thoroughly and seeded in 48-well plates, in the presence or absence of compound. As reference compounds, the RT inhibitor AZT (3.7 μM) and the protease inhibitor ritonavir (2.8 μM) were used, as negative and positive controls, respectively. TE-10 was used at 1 μM and 20 μM. After 43 h of incubation at 37°C, virus-containing cell culture supernatants were harvested and the cells were removed by centrifugation (10 min at ± 900 x g). Then, virus was precipitated from the cell supernatant by centrifugation at ± 3.5 x 10^4 x g for at least 2 h. The viruses were resuspended in PBS and lysed with Triton-X100 (Sigma-Aldrich, Diegem, Belgium). These viral lysates were then subjected to SDS-PAGE and subsequent Western blotting to detect the presence of p24 and its precursor p55, using an anti-p24 antibody (AB9044; final concentration 2.4 μg/ml).
# [4] = system: PHA-stimulated PBMCs; assay: Toxicity in PHA-stimulated PBMCs (trypan blue cell counting); type: cell-based, human; settings: Homo sapiens, PBMC, 168 h, read-out: IC50 PBMC
# Protocol: A similar experiment was performed to study the toxicity of the compounds in fresh, PHA-stimulated, PBMCs. Mock-infected PBMCs (2 x 10^5 cells) were exposed to a serial dilution of compound, in a total volume of 200 μl. Cells were passaged after 4 days. Cell survival and proliferation was assessed at day 7 using trypan blue-based cell counting with the Countess Automated Cell Counter (Invitrogen, Ghent, Belgium). The IC50 was defined as the concentration of the compound that inhibited cell proliferation by 50%.
# [5] = system: HIV-1(IIIB); assay: Antiviral activity in PHA-stimulated PBMCs (p24 ELISA), HIV-1(IIIB); type: cell-based; settings: Human immunodeficiency virus 1, IIIB, PBMC, read-out: EC50 HIV-1 (IIIB)
# Protocol: (§1) To test the antiviral activity in fresh, PHA-stimulated PBMCs, an experiment was performed as previously described. Briefly, the cells were preincubated with HIV-1(IIIB), HIV-1(BaL) or HIV-1(HE) for 1 h at 37°C, using a viral load of 1000 x CCID50 per ml. Then, cell suspensions containing virus and 2 x 10^5 PBMCs were seeded in a 96-well microtiter plate and a serial dilution of compound was added, in a total volume of 200 μl. After 4 days, the cells were passaged and fresh culture medium, containing IL-2 and compound, was added. Three days later, cellular supernatants were harvested and viral replication in the presence of the compounds was quantified using a p24 enzyme-linked immunosorbent assay (ELISA) (Perkin Elmer, Brussels, Belgium). The half maximal effective concentration (EC50) was defined as the compound concentration that is required to block viral replication by 50%.
# [6] = system: HIV-1(HE); assay: Antiviral activity in PHA-stimulated PBMCs (p24 ELISA), HIV-1(HE); type: cell-based; settings: Human immunodeficiency virus 1, PBMC, read-out: EC50 HIV-1 (HE)
# Protocol: as §1
# [7] = system: HIV-1(BaL); assay: Antiviral activity in PHA-stimulated PBMCs (p24 ELISA), HIV-1(BaL); type: cell-based; settings: Human immunodeficiency virus 1, BAL, PBMC; for EC50: read-out: EC50 HIV-1 (BAL)
# Protocol: as §1
# [8] = previously known structural properties ref 20-22; cited from earlier work
# [9] = system: CEM cells; assay: Cytostatic activity assay, CEM cells; type: cell-based; settings: Homo sapiens, CCRF-CEM, 72 h; inhibition of cell proliferation by 50%, three-day drug-exposed; mean ± SD
# Protocol: (§2) The cytostatic activity assay using transformed cell lines was also performed in 96-well microtiter plates. 5–7.5 x 10^4 human CD4^+ T-lymphocyte CEM or human cervix carcinoma HeLa cells and a given amount of the test compounds were added to each well. The cells were allowed to proliferate for 72 h (96 h for HeLa) at 37°C in a humidified CO2-controlled atmosphere. At the end of the incubation period, the cells were counted in a Coulter counter (type ZM, Coulter Electronics, Analis, Ghent, Belgium).
# [10] = system: HeLa cells; assay: Cytostatic activity assay, HeLa cells; type: cell-based; settings: Homo sapiens, 72 h, read-out: IC50 HeLa
# Protocol: as §2
# [11] = system: HIV-1; assay: Infectivity (TZM-bl) of virus particles produced by ACH-2 cells in presence of compound; type: cell-based; settings: compound added at 1/100 of concentration in viral growth culture
# Protocol: To measure the infectivity of particles produced in the presence of the compounds, washed persistently HIV-1-infected ACH-2 cells (1 x 10^6 cells/ml) were cultured with 100 nM PMA in the presence of the indicated concentration of compounds. After 3 days, the p24 content of the clarified supernatant (see virus expression) was measured. The cell supernatant was then used for an infectivity test (see infectivity assay) without the further addition of any compound to the cultures. The final dilution of the ACH-2 supernatant in the infectivity test was 1:100. A control experiment was performed, in which virus particles produced without the addition of compound, were used for the infectivity test. Additionally, the same amount of compound that could have been carried over with the virus containing supernatant in the original experiment was added to the infectivity test (final concentration: 1/100 of the indicated amount in the viral growth culture).
# [12] = system: HuT-78/HIV-1 and Sup-T1 cells; assay: cells; type: cell-based; settings: Human immunodeficiency virus 1, SUP-T1, 24 h, read-out: IC50 inhibition of syncytia formation
# Protocol: Persistently infected HuT-78/HIV-1 cells were thoroughly washed to eliminate free virions. Next, 1 x 10^5 HuT-78/HIV-1 cells were co-cultivated with 1 x 10^5 Sup-T1 cells in 96-well plates (200 μl/well) during 20 h at 37°C, in the presence or absence of a serial dilution of compound. Afterwards, the formation of syncytia was evaluated microscopically. The EC50 was defined as the compound concentration required to suppress syncytia formation by 50%.
# [13] = system: HIV-2(ROD); assay: Inhibition of HIV-2(ROD)-induced giant cell formation in CEM cell cultures; type: cell-based; settings: for Ratio IC50/EC50 HIV-2 (CEM): CEM cells; for EC50: Human immunodeficiency virus 2, CCRF-CEM, read-out: EC50 HIV-2 (ROD)
# Protocol: (§3) To study the antiviral activity in transformed cells, CEM cells were suspended in fresh culture medium and infected with HIV-1(IIIB) or HIV-2(ROD) at 100 x CCID50 (cell culture infective dose 50%) per ml of cell suspension. Infected cell suspension (100 μl; 3 x 10^5 cells/ml) was transferred to a 96-well microplate, mixed with 100 μl of the appropriate dilutions of compounds, and further incubated at 37°C. After 4 days, giant cell formation was recorded microscopically and the number of giant cells was estimated microscopically as percentage of the number of giant cells present in the non-treated virus-infected cell cultures.
# [14] = system: HIV-1(IIIB); assay: microbe, parasite or virus in culture; type: cell-based; settings: for Ratio IC50/EC50 HIV-1 (CEM): CEM cells; for EC50: Human immunodeficiency virus 1, IIIB, CCRF-CEM
# Protocol: as §3
# [15] = system: HIV-1; assay: Infectivity assay in TZM-bl cells (luciferase); settings: TZM-bl, 40 h
# Protocol: TZM-bl cells (1 x 10^5) were infected with diluted virus suspension (see virus expression) in a total volume of 0.2 ml DMEM medium in the presence of the compounds or an inhibitor control (nevirapine). After 40 h at 37°C, the luminescence was assayed and quantified in a Luminoskan Ascent (Thermo Labsystems, Schwerte, Germany) for luciferase activity using the OneGlo luciferase assay system (Promega, Nacka, Sweden).
SMILES,inhibition of protease activity [1],time after virus infection that addition could be delayed without losing inhibitory activity [2],p55 cleavage in viral particles (Western blot) [3],IC50 [4],EC50 [5],EC50 [6],EC50 [7],inhibition at 25 µM ([7]; read-out: inhibition at indicated concentration),Hydrophobicity [8],IC50 [9],IC50 [10],carry-over control: residual compound as cause of decreased infectivity [11],IC50 [12],Ratio IC50/EC50 HIV-2 (CEM) [13],EC50 [13],Ratio IC50/EC50 HIV-1 (CEM) [14],EC50 ([14]; read-out: EC50 HIV-1 (IIIB)),fold higher concentration for similar inhibition of luminescence signal than the other organotellurium compounds [15],decrease of protease activity [1],EC50 ([14]; read-out: EC50 (range given))
"CC(C)CC(=O)N[C@H](C(=O)N[C@H](C(=O)N[C@@H](CC(C)C)[C@@H](O)CC(=O)N[C@@H](C)C(=O)N[C@@H](CC(C)C)[C@@H](O)CC(=O)O)C(C)C)C(C)C [pepstatin A, reference compound] (Isovaleryl-VV[Sta]A[Sta]-OH)",pronounced inhibitory activity,,,,,,,,,,,,,,,,,,,
CC(C)c1nc(CN(C)C(=O)N[C@H](C(=O)N[C@@H](Cc2ccccc2)C[C@H](O)[C@H](Cc2ccccc2)NC(=O)OCc2cncs2)C(C)C)cs1 [ritonavir],,≥ 8 h,blocks this cleavage,,,,,,,,,,,,,,,,,
"CCCC[Te]CCCS(=O)(=O)O [TE-20, 3-(butyltelluro)propanesulfonic acid sodium salt]",,,,75 ± 53 µM,18 ± 12 µM,11 ± 9 µM,≥ 25 µM,30 to 50%,Hydrophilic,103 ± 27 µM,101 ± 3 µM,could not be explained by the presence of residual compound,> 250 µM,36,2.9 ± 1.3 µM,38,2.7 ± 2.6 µM,,,
"Cc1cn([C@H]2C[C@H](N=[N+]=[N-])[C@@H](CO)O2)c(=O)[nH]c1=O [AZT, 3’-azido-2’,3’-dideoxythymidine]",,at least 3 h,allow efficient p55 cleavage,,,,,,,,,,,,,,,,,
"COC(=O)CCN(CCC(=O)OC)c1ccc([Te]c2ccc(N(CCC(=O)OC)CCC(=O)OC)cc2)cc1 [TE-10, bis[4-(N,N-di(2-carbomethoxyethyl)amino)phenyl]telluride]",,,allow efficient p55 cleavage,19 ± 2 µM,12 ± 4 µM,6.6 ± 2.1 µM,12 ± 10 µM,,Hydrophobic,≥ 250 µM,128 ± 29 µM,could not be explained by the presence of residual compound,> 250 µM,17,15 ± 2.6 µM,16,16 ± 7.9 µM,approximately 10 fold,50%,15 to 16 µM
